Series [1] deals with Male Sprague-Dawley rats. The experiment in a line: animal or person. Particulars: sc; minimum dose at which maximal reversal of hind paw weight bearing (50±0.5%) was achieved; subcutaneous administration; rat; read-out: MEMD SC CFA. The class given is in vivo, rat.
Series [2] concerns the target μ-receptor (Homo sapiens (Human), UniProt P35372). Kind of series: Receptor binding, competitive displacement of [3H]DAMGO. The following applies: 0.25 nM [3H]DAMGO, CHO cell membrane protein, 60 min at 25° C. An outline of the steps:
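Ki derived via Cheng-Prusoff from IC50 (log-probit fit) of displacement of 0.25 nM [3H]DAMGO, 12 concentrations, from human μ-receptor in CHO cell membranes. Binding: 50 mM Tris-HCl pH 7.5, 25 °C, 60 min, 10 μM naloxone defining nonspecific, filter-bound radioactivity counted.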
(Loss of bound radioactivity is the signal in a displacement assay; it reports binding, not function.)

In series [3] the test system is Male Sprague-Dawley rats. The following applies: maximum pCO2 within 2 hours of administration, subcutaneous, rat; for <60 mmHg @ 10X CFA MEMD: dose 10× CFA MEMD; for <60 mmHg @ 100X CFA MEMD: dose 100× CFA MEMD.
The target of series [4] is human μ opioid receptor (Homo sapiens (Human), UniProt P35372). The experiment in a line: Functional activity ([35S]GTPγS binding). Particulars: [35S]GTPγS 0.080 nM, CHO cell membranes, 60 min at 30° C., filtration. The class given is biochemical. An outline of the steps: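 Membranes from stably transfected CHO cells (7.5 μg) incubated with 12 test-compound concentrations and 0.080 nM [35S]GTPγS in 50 mM Tris-HCl pH 7.4, 3 mM MgCl2, 0.2 mM EGTA, 3 μM GDP, 100 mM NaCl, 60 min at 30° C. Nonspecific binding defined with 10 μM GTPγS; bound label collected by filtration and scintillation counting.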

Regarding `COC1(c2ccnc(C(N)=O)c2)C2CCCC1CN(CC1CCOCC1)C2.Cl` [Compound 127, 4-((1R,5S,9r)-9-methoxy-3-((tetrahydro-2H-pyran-4-yl)methyl)-3-azabicyclo[3.3.1]nonan-9-yl)picolinamide hydrochloride], the minimal effective dose in series [1] is 0.1 mg/kg. In series [2], the Ki (in general, a dissociation constant, usually derived from enzyme kinetics or from competition with a known ligand) lay within 1 to 5 nM. Moreover, in series [3], the “<60 mmHg @ 10X CFA MEMD” value was “+ (resulted in a maximum pCO2 value of less than 60 mmHg within 2 hours of administration)” and the “<60 mmHg @ 100X CFA MEMD” value is recorded as “+ (resulted in a maximum pCO2 value of less than 60 mmHg within 2 hours of administration)”. For the same compound, the EC50 (usually the concentration at which the effect is half-maximal) in series [4] lay within 10 to 75 nM.

As for `COC1(c2cccc(C(N)=O)c2)C2CCCC1CN(CC1CC1)C2.Cl` [Compound 22, 3-((1R,5S,9r)-3-(cyclopropylmethyl)-9-methoxy-3-azabicyclo[3.3.1]nonan-9-yl)benzamide hydrochloride], in series [1], the minimal effective dose is 0.1 mg/kg. This compound yielded a Ki in series [2] of under 1 nM. In series [3], the “<60 mmHg @ 10X CFA MEMD” value is “+ (resulted in a maximum pCO2 value of less than 60 mmHg within 2 hours of administration)” and the “<60 mmHg @ 100X CFA MEMD” value is given as “− (resulted in a maximum pCO2 value of greater than 60 mmHg within 2 hours of administration)”. For the same compound, in series [4], the EC50 was under 10 nM.

As to `COC1(c2ccnc(C(N)=O)c2)C2CCCC1CNC2.Cl` [Compound 70, 4-((1R,5S,9r)-9-methoxy-3-azabicyclo[3.3.1]nonan-9-yl)picolinamide hydrochloride], in series [1], the minimal effective dose was determined as 1 mg/kg. This compound showed a Ki in series [2] of 1 to 5 nM. Further, in series [3], the “<60 mmHg @ 10X CFA MEMD” value is recorded as “+ (resulted in a maximum pCO2 value of less than 60 mmHg within 2 hours of administration)” and the “<60 mmHg @ 100X CFA MEMD” value was “+ (resulted in a maximum pCO2 value of less than 60 mmHg within 2 hours of administration)”. In series [4], this compound yielded an EC50 of over 75 nM.

In the case of `COC1(c2ccnc(C(N)=O)c2)C2CCCC1CN([C@H]1CCOC1)C2.Cl` (stereo partly drawn) [Compound 79, 4-((1R,5S,9R)-9-methoxy-3-((R)-tetrahydrofuran-3-yl)-3-azabicyclo[3.3.1]nonan-9-yl)picolinamide hydrochloride], in series [1], the minimal effective dose worked out at 0.3 mg/kg. In series [2], the Ki fell in the range of 1 to 5 nM. Besides, in series [3], the “<60 mmHg @ 10X CFA MEMD” value is given as “+ (resulted in a maximum pCO2 value of less than 60 mmHg within 2 hours of administration)” and the “<60 mmHg @ 100X CFA MEMD” value is on record as “− (resulted in a maximum pCO2 value of greater than 60 mmHg within 2 hours of administration)”. In addition, the EC50 in series [4] lay in the range of 10 to 75 nM.

For `COC1(c2cccc(C(N)=O)c2)C2CCCC1CN(C1CC3(COC3)C1)C2.O=C(O)CC(O)C(=O)O` [Compound 133, 3-((1R,5S,9r)-9-methoxy-3-(2-oxaspiro[3.3]heptan-6-yl)-3-azabicyclo[3.3.1]nonan-9-yl)benzamide (S)-2-hydroxysuccinate], the minimal effective dose in series [1] is 1 mg/kg. Besides, the inhibition constant (Ki) in series [2] was under 1 nM. For the same compound, the “<60 mmHg @ 10X CFA MEMD” value in series [3] is reported as “+ (resulted in a maximum pCO2 value of less than 60 mmHg within 2 hours of administration)”. The compound further gave an EC50 in series [4] of under 10 nM.

Consider `COC1(c2cccc(C(N)=O)c2)C2CCCC1CN(CC1(O)CC1)C2.Cl` [Compound 46, 3-((1R,5S,9r)-3-((1-hydroxycyclopropyl)methyl)-9-methoxy-3-azabicyclo[3.3.1]nonan-9-yl)benzamide hydrochloride], for which the minimal effective dose in series [1] stood at 1 mg/kg. This compound also came in with a Ki in series [2] of under 1 nM. Also, the “<60 mmHg @ 10X CFA MEMD” value in series [3] is “+ (resulted in a maximum pCO2 value of less than 60 mmHg within 2 hours of administration)”. Besides, the EC50 in series [4] was in the range of 10 to 75 nM.

In the case of `COC1(c2ccnc(C(N)=O)c2)C2CCCC1CN(C)C2.Cl` [Compound 43, 4-((1R,5S,9r)-9-methoxy-3-methyl-3-azabicyclo[3.3.1]nonan-9-yl)picolinamide hydrochloride], the minimal effective dose in series [1] came out at 0.1 mg/kg. In addition, in series [2], the Ki is under 1 nM. In series [3], the “<60 mmHg @ 10X CFA MEMD” value was “+ (resulted in a maximum pCO2 value of less than 60 mmHg within 2 hours of administration)” and the “<60 mmHg @ 100X CFA MEMD” value is listed as “+ (resulted in a maximum pCO2 value of less than 60 mmHg within 2 hours of administration)”. In series [4], this compound displayed a half-maximal effective concentration (EC50) of 10 to 75 nM.

Regarding `COC1(c2ccnc(C(N)=O)c2)C2CCCC1CN(Cc1cn(C)cn1)C2.Cl` [Compound 123, 4-((1R,5S,9r)-9-methoxy-3-((1-methyl-1H-imidazol-4-yl)methyl)-3-azabicyclo[3.3.1]nonan-9-yl)picolinamide hydrochloride], the minimal effective dose in series [1] came to 1 mg/kg. Besides, the Ki in series [2] was in the range of 1 to 5 nM. Moreover, in series [3], the “<60 mmHg @ 10X CFA MEMD” value was “+ (resulted in a maximum pCO2 value of less than 60 mmHg within 2 hours of administration)”. The same compound displayed an EC50 in series [4] of 10 to 75 nM.

In the case of `COC1(c2cccc(C(N)=O)c2)C2CCCC1CN(C)C2.Cl` [Compound 23, 3-((1R,5S,9r)-9-methoxy-3-methyl-3-azabicyclo[3.3.1]nonan-9-yl)benzamide hydrochloride], in series [1], the minimal effective dose was found to be 0.1 mg/kg. In addition, in series [2], the Ki is under 1 nM. In addition, in series [3], the “<60 mmHg @ 10X CFA MEMD” value is “+ (resulted in a maximum pCO2 value of less than 60 mmHg within 2 hours of administration)” and the “<60 mmHg @ 100X CFA MEMD” value is on record as “+ (resulted in a maximum pCO2 value of less than 60 mmHg within 2 hours of administration)”. This compound had an EC50 in series [4] of under 10 nM.

`COC1(c2ccnc(C(N)=O)c2)C2CCCC1CN(Cc1cnn[nH]1)C2.Cl` [Compound 108, 4-((1R,5S,9r)-3-((1H-1,2,3-triazol-5-yl)methyl)-9-methoxy-3-azabicyclo[3.3.1]nonan-9-yl)picolinamide hydrochloride]: in series [1], the minimal effective dose was 0.3 mg/kg. Also, the Ki in series [2] was in the range of 1 to 5 nM. Also, in series [3], the “<60 mmHg @ 10X CFA MEMD” value is “+ (resulted in a maximum pCO2 value of less than 60 mmHg within 2 hours of administration)” and the “<60 mmHg @ 100X CFA MEMD” value is reported as “+ (resulted in a maximum pCO2 value of less than 60 mmHg within 2 hours of administration)”. In addition, the EC50 in series [4] was 10 to 75 nM.

On to `COC1(c2ccnc(C(N)=O)c2)C2CCCC1CN([C@@H]1CCCOC1)C2.Cl` (stereo partly drawn) [Compound 60, 4-((1R,5S,9R)-9-methoxy-3-((R)-tetrahydro-2H-pyran-3-yl)-3-azabicyclo[3.3.1]nonan-9-yl)picolinamide hydrochloride], for which, in series [1], the minimal effective dose stood at 0.3 mg/kg. Moreover, in series [2], the Ki lay within 1 to 5 nM. Further, in series [3], the “<60 mmHg @ 10X CFA MEMD” value is “+ (resulted in a maximum pCO2 value of less than 60 mmHg within 2 hours of administration)” and the “<60 mmHg @ 100X CFA MEMD” value was “+ (resulted in a maximum pCO2 value of less than 60 mmHg within 2 hours of administration)”. This compound also gave an EC50 in series [4] of over 75 nM.

Consider `COC1(c2ccnc(C(N)=O)c2)C2CCCC1CN(C1CCC3(CC1)COC3)C2.O=C(O)CC(O)C(=O)O` [Compound 158, 4-((1R,5S,9r)-9-methoxy-3-(2-oxaspiro[3.5]nonan-7-yl)-3-azabicyclo[3.3.1]nonan-9-yl)picolinamide (S)-2-hydroxysuccinate], for which, in series [1], the minimal effective dose was 0.1 mg/kg. For the same compound, in series [2], the Ki was in the range of 1 to 5 nM. Moreover, in series [3], the “<60 mmHg @ 10X CFA MEMD” value was “+ (resulted in a maximum pCO2 value of less than 60 mmHg within 2 hours of administration)” and the “<60 mmHg @ 100X CFA MEMD” value is “+ (resulted in a maximum pCO2 value of less than 60 mmHg within 2 hours of administration)”. The compound also yielded an EC50 in series [4] of 10 to 75 nM.

These data come from patent US10604489B2, “Compounds for the treatment of pain” (priority 2018, dated 2020).
